From publication PMC9542285, “Novel amides of mycophenolic acid and some heterocyclic derivatives as immunosuppressive agents” (Journal of Enzyme Inhibition and Medicinal Chemistry, 2022) come the findings set out here.

Where two headings read alike, the source gives them in different places.

The subject of data set [1] is PBMCs. The data set can be described thus: In vitro cytotoxicity assay with XTT dye, PBMCs. The class given is cell-based, human. Conditions: Homo sapiens, PBMC, 72 h incubation then 24 h XTT, read-out: IC50 PBMCs (XTT test). The protocol:
(§1) Figure 2. Representative dose-response curve to determine the IC50 of MPA and A2. […] Next, plates were incubated for 24 h with XTT reagent. The conversion of water-soluble yellow tetrazolium XTT salt into orange formazan was monitored by measuring the optical density at 450 nm on microplate spectrophotometer. For XTT assay at least three experiments were performed and values are presented as mean ± SD.
(§2) The cytotoxic effect of derivatives of MPA was measured using in vitro 2,3-bis(2-methoxy-4-nitro-5-sulfophenyl)-2H-tetrazolium-5-carboxanilide (XTT)-based assay (Roche, Basel, Swiss). PBMCs suspended in complete X–VIVO20 medium and T-Jurkat cells suspended in complete RPMI-1640 medium were added on a 96-well plate at a concentration of 5 × 10^5 cells/50 µL/well. […] As a background control we used medium without cells, as a positive control we used cells untreated with compounds. After 48 h for T-Jurkat cells and 72 h for PBMCs of incubation in a humidified atmosphere with 5% CO2 at 37 °C, 50 µL of XTT reagent (freshly prepared according to the manufacturer’s procedure) was added to all samples. Plates were incubated for 24 h (5% CO2 at 37 °C). The conversion of water-soluble yellow tetrazolium XTT salt into orange formazan was monitored by measuring the optical density (OD) at 450 nm on Agilent BioTek Epoch Microplate Spectrophotometer (Agilent Technologies, Santa Clara, CA), with a background wavelength at 690 nm. […] Each sample was performed in triplicates.
On the technique in general: Tetrazolium assays rely on reduction of a dye to a coloured formazan, in cell work by metabolically active cells.

Data set [2] in a line: In vitro cytotoxicity assay with XTT dye, T-Jurkat. The class given is cell-based, human. The settings on record: human, T-Jurkat cell line, […], trypan blue exclusion. How it is done: as §1, §2
Another data set is described as follows: in vitro. Conditions: human.
The test system of the next data set is T-Jurkat cell line. The data set can be described thus: In vitro cytotoxicity assay with XTT dye, T-Jurkat. In kind it is cell-based, human. The settings on record: Homo sapiens, 48 h incubation then 24 h XTT, read-out: IC50 T-Jurkat (XTT test). How it is done: as §1, §2
The test system of a further data set is T-Jurkat cells. Description: Dye-based proliferation assay VPD450 (flow cytometry), T-Jurkat. The class given is cell-based, human. Conditions: Homo sapiens, 48 h. How it is done:
(§3) Figure 4. […] Cell proliferation was analysed using flow cytometry.
(In general: Flow cytometry measures light scatter and fluorescence of single cells or particles in a stream.)

The subject of data set [3] is PBMCs. Description: VPD450 proliferation of PBMCs with or without GMP (IMPDH mechanism test). The settings on record: PBMCs, 72 h. In kind it is cell-based, human. How it is done:
According to reported experiment, suppression of cell proliferation caused by IMPDH inhibitors in the presence of guanosine source, e.g. gunosine monophosphate (GMP) is reversible.
Figure 5. […] Cell proliferation was analysed using flow cytometry.
Cells proliferation was analyzed using flow cytometry.
(1 picture or pasted object on this page, not shown here)

Data set [4] deals with PBMCs. Conditions: read-out: EC50 PBMCs (VPD450 proliferation); PBMCs stimulated with anti-CD3/anti-CD28 beads, 72 h.
Description: (§4) Cell proliferation was analysed using flow cytometry. The results are expressed as the mean ± SD.
(§5) PBMCs and T-Jurkat cells were washed twice with warm PBS (37 °C), suspended in fresh PBS at a final concentration of 10–30 × 10^6 cells/mL and labelled with 1 µL of VPD450 (BD Biosciences, Franklin Lakes, NJ) at 37 °C for 15 min. Each 5 min cells were vortexed to provide uniform staining[42]^,[43]. Subsequently, cells were washed with PBS and then with complete medium (X-VIVO20 for PBMCs and RPMI-1640 for T-Jurkat cells). After this step, cells were suspended in fresh complete medium, seeded on 96-well plates (1 × 10^6 cells/well). PBMCs were additionally stimulated with magnetic beads coated with anti-CD3 and anti-CD28 antibodies (Invitrogen, Carlsbad, CA) in 1:0.5 cell:bead ratio. Of 100 µL of examined derivatives of MPA were added to experimental wells to receive final concentrations: 100; 10; 1; 0.1; 0.01 µM. In parallel, stained and not stimulated cells, as well as stained and stimulated cells, were seeded in the same concentration as controls. After 48 h for T-Jurkat and 72 h for PBMCs, cells were analysed with flow cytometer LSRFortessa (BD Biosciences, Franklin Lakes, NJ) and Kaluza C Flow Cytometry Analysis Software (Beckman Coulter, Brea, CA). […] Cell viability was determined at the highest concentration of the tested compound. For this purpose, TC20 cell counter (Biorad) was used with trypan blue exclusion.
In data set [5] the test system is PBMCs. The data set can be described thus: cells. Conditions: Homo sapiens, PBMC, 72 h, read-out: EC50 PBMCs (VPD450 proliferation), PBMCs stimulated with anti-CD3/anti-CD28 beads, 72 h.
Description: as §4, §5
The nature of data set [6]: In vitro cytotoxicity assay with XTT dye, PBMCs. The class given is cell-based, human. The settings on record: human, […], trypan blue exclusion. The protocol: as §1, §2
Data set [7] is described as follows: Dye-based proliferation assay VPD450 (flow cytometry), T-Jurkat. The class given is cell-based, human. Conditions: human, VPD450-labelled T-Jurkat cells, […], trypan blue exclusion. How it is done: as §3
Data set [8] is described as follows: Precipitation / solubility of compounds in culture. More on the design: key to Precipitating compound flag (XTT test, PBMCs) / Precipitating compound flag (VPD450 assay, PBMCs): (↓) – precipitating compound. The class given is physicochemical. How it is done:
Drug toxicity that affects the cells can cause a variety of serious side effects, including uncontrolled suppression of the immune system. In order to check the cytotoxicity of the tested compounds, the XTT test was performed, the results of which are presented in Table 2. All tested compounds were characterised by lower cytotoxicity than native MPA. Unfortunately, several compounds (marked with ↓) were partially insoluble in culture despite surfactant addition. They were investigated too, but one could not use them as an immunosuppressive drug in their current form. Taking into account the EC50 values obtained in the proliferation tests ([…] staining, Table 3), the compound A2 was selected as the one with the highest immunosuppressive potential and the possibility of its later use in therapy, and is presented in the graphs (Figures 2–4).
To prepare appropriate concentrations of tested compounds, the substances were dissolved in DMSO (Sigma Aldrich, Poland) with 1% addition of Tween20 to obtain final concentration of 0.01 M. The solution was diluted 10-fold and then 5-fold in appropriate medium without additives (RPMI-1640 for T-Jurkat cell line; X-VIVO20 for PBMCs) to obtain the following concentrations: 200; 20; 2; 0.2; 0.02 µM.

Where [9] appears, read: PBMC culture, DMSO with Tween20.

What is called IC50 is the concentration that inhibits the measured activity by half. The viability is a per cent measure of how many cells are alive, often set against a control. Turning to `COc1c(C)c2c(c(O)c1C/C=C(\C)CCC(=O)Nc1nc3ccccc3s1)C(=O)OC2` [A1, N-(benzo[d]thiazol-2-yl) mycophenolate], the IC50 in the data set with PBMCs [1] was 74.57 ± 0.04 µM. The molecule further displayed a viability at 48 h, 100 µM in data set [2] of 68%. Moreover, the viability at 72 h, 100 µM in “in vitro” amounted to 82%.
A word on the melting point: it is the temperature of the solid-liquid transition. For the molecule `COc1c(C)c2c(c(O)c1C/C=C(\C)CCC(=O)Nc1nc3ccccc3o1)C(=O)OC2` [A2, N-(benzo[d]oxazol-2-yl) mycophenolate], the melting point was 175 to 177 °C. The IC50 in the data set with PBMCs [1] was determined as 15.923 ± 0.009 µM. Moreover, the IC50 with T-Jurkat cell line was found to be 1.326 ± 0.002 µM. The EC50 in the data set with T-Jurkat cells was 0.85 ± 0.004 µM. Besides, the “Effect of GMP addition on proliferation” value with PBMCs [3] (50 µM GMP, MPA at 100, 10 and 1 µM, A2 at 100 and 10 µM) is “proliferation increases after the addition of GMP”. In the data set with PBMCs [3] (with or without 50 µM GMP), the “Mechanism of action (IMPDH inhibition, GMP reversal)” value is “consistent with that of MPA”. In addition, in the data set on PBMCs [4], the EC50 came to 5.601 ± 0.022 µM. For the same molecule, the EC50 in the data set with PBMCs [5] turned out to be 5.6 µM.
On to `COc1c(C)c2c(c(O)c1C/C=C(\C)CCC(=O)Nc1nc3c(C)cccc3s1)C(=O)OC2` [A17, N-(4-methylbenzo[d]thiazol-2-yl) mycophenolate], for which the melting point was 173 to 176 °C. The viability at 72 h, 100 µM in data set [6] was found to be 65%. The viability at 48 h, 100 µM in data set [2] came out at 82%. The viability at 48 h, 100 µM in data set [7] was found to be 69%. Also, in [8] (setting [9]), the “Precipitating compound flag (VPD450 assay, PBMCs)” value is given as “(↓)” and the “Precipitating compound flag (XTT test, PBMCs)” value was “– (↓)”. The “Solubility in PBMC culture” value in data set [8] (XTT assay conditions) is listed as “limited solubility”. Moreover, the EC50 in the data set on PBMCs [5] was determined as 82.1 µM.
